Measurements: the NIST ThermoML archive (doi:10.1016/j.fluid.2007.08.010)
Numbers after ± are expanded uncertainties.

Details: Liquid, Falling or rolling sphere viscometry

**Q.** For `c1ccccc1` [benzene], which viscosity (313.2 K, 690 kPa) is on record?
**A.** Its viscosity is 0.479 ± 0.02 mPa·s.

**Q.** And the viscosity (313.2 K, 5000 kPa)?
**A.** The viscosity was 0.5 ± 0.02 mPa·s.

**Q.** What about the viscosity (313.2 K, 10000 kPa) of the same compound?
**A.** The viscosity was 0.524 ± 0.021 mPa·s.

**Q.** And the viscosity (313.2 K, 20000 kPa)?
**A.** The viscosity was 0.574 ± 0.023 mPa·s.

**Q.** And the viscosity (313.2 K, 30000 kPa)?
**A.** Its viscosity is 0.625 ± 0.025 mPa·s.

**Q.** What about the viscosity (313.2 K, 40000 kPa) of the same compound?
**A.** The viscosity was 0.675 ± 0.027 mPa·s.

**Q.** And the viscosity (313.2 K, 50000 kPa)?
**A.** The viscosity was 0.725 ± 0.029 mPa·s.

**Q.** And the viscosity (313.2 K, 60000 kPa)?
**A.** The viscosity was 0.774 ± 0.031 mPa·s.

**Q.** What about the viscosity (333.2 K, 690 kPa) of the same compound?
**A.** Its viscosity is 0.387 ± 0.016 mPa·s.

**Q.** What about the viscosity (333.2 K, 5000 kPa) of the same compound?
**A.** The viscosity was 0.404 ± 0.016 mPa·s.

**Q.** And the viscosity (333.2 K, 10000 kPa)?
**A.** Its viscosity is 0.424 ± 0.017 mPa·s.

**Q.** And the viscosity (333.2 K, 20000 kPa)?
**A.** Its viscosity is 0.466 ± 0.019 mPa·s.

**Q.** And the viscosity (333.2 K, 30000 kPa)?
**A.** Its viscosity is 0.509 ± 0.021 mPa·s.

**Q.** What about the viscosity (333.2 K, 40000 kPa) of the same compound?
**A.** The viscosity was 0.553 ± 0.023 mPa·s.

**Q.** What about the viscosity (333.2 K, 50000 kPa) of the same compound?
**A.** The viscosity was 0.597 ± 0.024 mPa·s.

**Q.** What about the viscosity (333.2 K, 60000 kPa) of the same compound?
**A.** The viscosity was 0.641 ± 0.026 mPa·s.

**Q.** And the viscosity (353.2 K, 690 kPa)?
**A.** Its viscosity is 0.317 ± 0.013 mPa·s.

**Q.** And the viscosity (353.2 K, 5000 kPa)?
**A.** Its viscosity is 0.331 ± 0.013 mPa·s.

**Q.** And the viscosity (353.2 K, 10000 kPa)?
**A.** Its viscosity is 0.347 ± 0.014 mPa·s.

**Q.** What about the viscosity (353.2 K, 20000 kPa) of the same compound?
**A.** Its viscosity is 0.38 ± 0.015 mPa·s.

**Q.** And the viscosity (353.2 K, 30000 kPa)?
**A.** The viscosity was 0.415 ± 0.017 mPa·s.

**Q.** And the viscosity (353.2 K, 40000 kPa)?
**A.** Its viscosity is 0.451 ± 0.018 mPa·s.

**Q.** What about the viscosity (353.2 K, 50000 kPa) of the same compound?
**A.** The viscosity was 0.489 ± 0.02 mPa·s.

**Q.** And the viscosity (353.2 K, 60000 kPa)?
**A.** The viscosity was 0.526 ± 0.021 mPa·s.

**Q.** What about the viscosity (373.2 K, 690 kPa) of the same compound?
**A.** The viscosity was 0.269 ± 0.011 mPa·s.

**Q.** What about the viscosity (373.2 K, 5000 kPa) of the same compound?
**A.** Its viscosity is 0.279 ± 0.011 mPa·s.

**Q.** And the viscosity (373.2 K, 10000 kPa)?
**A.** The viscosity was 0.291 ± 0.012 mPa·s.

**Q.** What about the viscosity (373.2 K, 20000 kPa) of the same compound?
**A.** Its viscosity is 0.316 ± 0.013 mPa·s.

**Q.** And the viscosity (373.2 K, 30000 kPa)?
**A.** The viscosity was 0.344 ± 0.014 mPa·s.

**Q.** And the viscosity (373.2 K, 40000 kPa)?
**A.** The viscosity was 0.372 ± 0.015 mPa·s.

**Q.** What about the viscosity (373.2 K, 50000 kPa) of the same compound?
**A.** The viscosity was 0.402 ± 0.016 mPa·s.

**Q.** What about the viscosity (373.2 K, 60000 kPa) of the same compound?
**A.** The viscosity was 0.434 ± 0.018 mPa·s.

**Q.** What about the viscosity (393.2 K, 690 kPa) of the same compound?
**A.** Its viscosity is 0.239 ± 0.01 mPa·s.

**Q.** And the viscosity (393.2 K, 5000 kPa)?
**A.** The viscosity was 0.246 ± 0.01 mPa·s.

**Q.** What about the viscosity (393.2 K, 10000 kPa) of the same compound?
**A.** Its viscosity is 0.255 ± 0.01 mPa·s.

**Q.** And the viscosity (393.2 K, 20000 kPa)?
**A.** The viscosity was 0.273 ± 0.011 mPa·s.

**Q.** What about the viscosity (393.2 K, 30000 kPa) of the same compound?
**A.** The viscosity was 0.294 ± 0.012 mPa·s.

**Q.** What about the viscosity (393.2 K, 40000 kPa) of the same compound?
**A.** Its viscosity is 0.315 ± 0.013 mPa·s.

**Q.** And the viscosity (393.2 K, 50000 kPa)?
**A.** Its viscosity is 0.339 ± 0.014 mPa·s.

**Q.** What about the viscosity (393.2 K, 60000 kPa) of the same compound?
**A.** The viscosity was 0.364 ± 0.015 mPa·s.

**Q.** What does the source list for `CCCCCCCCCCCCCC` [tetradecane]?
**A.** viscosity (313.2 K, 690 kPa): 1.653 ± 0.068 mPa·s; viscosity (313.2 K, 5000 kPa): 1.738 ± 0.071 mPa·s; viscosity (313.2 K, 10000 kPa): 1.831 ± 0.075 mPa·s; viscosity (313.2 K, 20000 kPa): 2.025 ± 0.083 mPa·s; viscosity (313.2 K, 30000 kPa): 2.241 ± 0.092 mPa·s; viscosity (313.2 K, 40000 kPa): 2.483 ± 0.1 mPa·s; viscosity (313.2 K, 50000 kPa): 2.767 ± 0.11 mPa·s; viscosity (313.2 K, 60000 kPa): 3.093 ± 0.13 mPa·s; viscosity (333.2 K, 690 kPa): 1.218 ± 0.05 mPa·s; viscosity (333.2 K, 5000 kPa): 1.283 ± 0.053 mPa·s; viscosity (333.2 K, 10000 kPa): 1.345 ± 0.055 mPa·s; viscosity (333.2 K, 20000 kPa): 1.473 ± 0.06 mPa·s; viscosity (333.2 K, 30000 kPa): 1.607 ± 0.066 mPa·s; viscosity (333.2 K, 40000 kPa): 1.74 ± 0.071 mPa·s; viscosity (333.2 K, 50000 kPa): 1.886 ± 0.077 mPa·s; viscosity (333.2 K, 60000 kPa): 2.043 ± 0.084 mPa·s; viscosity (353.2 K, 690 kPa): 0.896 ± 0.037 mPa·s; viscosity (353.2 K, 5000 kPa): 0.957 ± 0.039 mPa·s; viscosity (353.2 K, 10000 kPa): 1.017 ± 0.042 mPa·s; viscosity (353.2 K, 20000 kPa): 1.128 ± 0.046 mPa·s; viscosity (353.2 K, 30000 kPa): 1.229 ± 0.05 mPa·s; viscosity (353.2 K, 40000 kPa): 1.325 ± 0.054 mPa·s; viscosity (353.2 K, 50000 kPa): 1.423 ± 0.058 mPa·s; viscosity (353.2 K, 60000 kPa): 1.518 ± 0.062 mPa·s; viscosity (373.2 K, 690 kPa): 0.66 ± 0.027 mPa·s; viscosity (373.2 K, 5000 kPa): 0.708 ± 0.029 mPa·s; viscosity (373.2 K, 10000 kPa): 0.757 ± 0.031 mPa·s; viscosity (373.2 K, 20000 kPa): 0.852 ± 0.035 mPa·s; viscosity (373.2 K, 30000 kPa): 0.943 ± 0.039 mPa·s; viscosity (373.2 K, 40000 kPa): 1.031 ± 0.042 mPa·s; viscosity (373.2 K, 50000 kPa): 1.117 ± 0.046 mPa·s; viscosity (373.2 K, 60000 kPa): 1.202 ± 0.049 mPa·s; viscosity (393.2 K, 690 kPa): 0.527 ± 0.022 mPa·s; viscosity (393.2 K, 5000 kPa): 0.568 ± 0.023 mPa·s; viscosity (393.2 K, 10000 kPa): 0.609 ± 0.025 mPa·s; viscosity (393.2 K, 20000 kPa): 0.687 ± 0.028 mPa·s; viscosity (393.2 K, 30000 kPa): 0.767 ± 0.031 mPa·s; viscosity (393.2 K, 40000 kPa): 0.839 ± 0.034 mPa·s; viscosity (393.2 K, 50000 kPa): 0.908 ± 0.037 mPa·s; viscosity (393.2 K, 60000 kPa): 0.976 ± 0.04 mPa·s
